Results from patent US20050014849A1, “Antifungal phenylethylene” (priority 2001, published 2005).
In brackets after ≈: the same amount, converted by molar mass. Entries after “also recorded” stand apart in the source; their conditions may differ.

Assays:
[1] = tested on: Blastoschizomyces capitalus ATCC 10663; test: Broth macrodilution MIC/MFC; assay type: cell-based
Protocol: (§1) TMPN was screened against yeasts by the broth macrodilution assay according to the NCCLS [7]. Yeasts were suspended and diluted as recommended to yield final inocula ranging from 0.5-2.5×10^3 cfu/ml. Tests were performed in sterile 12 by 75 mm plastic tubes containing two-fold dilutions of TMPN in 0.165 M morpholinepropanesulfonic acid buffered RPMI 1640 medium (pH 7.0). One tube was again left drug free (but contained an equivalent volume of DMSO) for a turbidity control. Tubes were incubated without agitation at the appropriate temperature (see Fungal Strains section above). MICs were determined after 72 h for Cryptococcus and after 48 h for other yeast genera. The MIC was defined as the lowest concentration of TMPN that inhibited all visible growth of the test organism (optically clear).
(§2) Minimum fungicidal concentrations (MFCs) were determined by subculturing 0.1 ml from each tube with no visible growth in the MIC broth macrodilution series onto the appropriate drug-free plates (see Fungal Strains section above).

Candida albicans (7) = test: Broth macrodilution MIC/MFC; assay type: cell-based
Protocol: as §1, §2

[2] = tested on: Filobasidium uniguttulatum ATCC 24227; test: Broth macrodilution MIC/MFC; assay type: cell-based
Protocol: as §1, §2

[3] = tested on: Fluconazole-resistant Cryptococcus neoformans (4); test: Broth macrodilution MIC/MFC; assay type: cell-based
Protocol: as §1, §2

K. apiculate ATCC 9774 = test: Broth macrodilution MIC/MFC; assay type: cell-based
Protocol: as §1, §2

[4] = tested on: Kluyveromyces marxianus ATCC 365534; test: Broth macrodilution MIC/MFC; assay type: cell-based
Protocol: as §1, §2

[5] = tested on: Rhodotorula mucilaginosa ATCC 9449; test: Broth macrodilution MIC/MFC; assay type: cell-based
Protocol: as §1, §2

[6] = tested on: Trichosporon cutaneum ATCC 28592; test: Broth macrodilution MIC/MFC; assay type: cell-based
Protocol: as §1, §2

C. albicans ATCC 10231 = test: Broth macrodilution MIC/MFC; assay type: cell-based, Candida albicans
Protocol: as §1, §2

C. albicans ATCC 14053 = test: Broth macrodilution MIC/MFC; assay type: cell-based, Candida albicans
Protocol: as §1, §2

C. albicans ATCC 60193 = test: Broth macrodilution MIC/MFC; assay type: cell-based, Candida albicans
Protocol: as §1, §2

[7] = tested on: Ketoconazole-resistant C. albicans ATCC 64124; test: Broth macrodilution MIC/MFC; assay type: cell-based, Candida albicans
Protocol: as §1, §2

C. guilliermondii (9) = test: Broth macrodilution MIC/MFC; assay type: cell-based, Candida guilliermondii
Protocol: as §1, §2

C. krusei (10) = test: Broth macrodilution MIC/MFC; assay type: cell-based, Candida krusei
Protocol: as §1, §2

T. asahii ATCC 20039 = test: Broth macrodilution MIC/MFC; assay type: cell-based, Trichosporon asahii
Protocol: as §1, §2

A. nidulans strain FGSC4 = test: Broth macrodilution MIC/MFC, filamentous fungi; assay type: cell-based, Aspergillus nidulans
Protocol: Susceptibility testing of filamentous fungi was also conducted. Broth macrodilution susceptibility testing of P. lilacinus, Rhizopus spp. and Aspergillus spp. was performed in accordance with a proposed standardized procedure with slight modification. To induce conidium and sporangiospore formation, fungi were grown on PDA slants at 35° C. for 6 days (P. lilacinus, Rhizopus spp., all Aspergillus species except A. nidulans) or 3 days (A. nidulans). Fungal slants were covered with sterile 0.85% NaCl (P. lilacinus, Rhizopus spp., all Aspergillus species except A. nidulans) or 0.05% Tween 80 (A. nidulans), and suspensions were made by gently probing the colonies with the tip of a sterile Pasteur pipette. The resulting mixture of hyphal fragments and conidia or sporangiospores was withdrawn and transferred to a sterile clear microcentrifuge tube, and heavy particles were allowed to settle for 10 min. […] Susceptibility to TMPN was then determined by broth macrodilution as described above for yeast isolates. […]
as §2

[8] = tested on: 132 reference strains and clinical isolates; test: Broth macrodilution MIC/MFC, all fungi tested (summary); assay type: cell-based
Protocol: as §1
Susceptibility testing of filamentous fungi was also conducted. Broth macrodilution susceptibility testing of P. lilacinus, Rhizopus spp. and Aspergillus spp. was performed in accordance with a proposed standardized procedure with slight modification. To induce conidium and sporangiospore formation, fungi were grown on PDA slants at 35° C. for 6 days (P. lilacinus, Rhizopus spp., all Aspergillus species except A. nidulans) or 3 days (A. nidulans). Fungal slants were covered with sterile 0.85% NaCl (P. lilacinus, Rhizopus spp., all Aspergillus species except A. nidulans) or 0.05% Tween 80 (A. nidulans), and suspensions were made by gently probing the colonies with the tip of a sterile Pasteur pipette. The resulting mixture of hyphal fragments and conidia or sporangiospores was withdrawn and transferred to a sterile clear microcentrifuge tube, and heavy particles were allowed to settle for 10 min. The upper homogenous suspension was transferred to a sterile microcentrifuge tube, vortexed for 15 s, adjusted spectrophotometrically, and diluted in sterile 0.165 M MOPS-buffered RPMI medium, pH 7.0, to yield final inocula ranging from 0.5-2.5×10^3 cfu/ml. Susceptibility to TMPN was then determined by broth macrodilution as described above for yeast isolates. MICs were read after 48 h The MIC was defined as the lowest concentration of TMPN that inhibited all visible growth of the test organism (optically clear).
as §2
Possible host effects were also evaluated. Broth macrodilution assays were performed with RPMI medium prepared at pH 5, pH 6, and pH 7, and in RPMI medium with and without 50% normal human serum (Lampire Biological Labs). The pH experiments were performed twice on separate days.

For COc1cc(C=C[N+](=O)[O-])cc(OC)c1OC [TMPN, 1-(3′,4′,5′-trimethoxyphenyl)-2-nitro-ethylene], the “MFC Range” value [1] was 32 µg/mL (≈ 134 µM), the “MIC Range” value [1] was 8 µg/mL (≈ 33.4 µM) and the “share of isolates with MFC/MIC ratio <2” value (Candida albicans (7); C. albicans clinical isolates) was 71%. For the same compound, the “MIC Range” value (Candida albicans (7); Candida albicans (7)) was 4 to 32 µg/mL, the “share of isolates with MFC/MIC ratio ≦2” value (Candida albicans (7); Candida albicans clinical isolates) was 71% and the “MFC Range” value [2] was 2 µg/mL (≈ 8.36 µM). For the same compound, the “MIC Range” value [2] was 0.5 µg/mL (≈ 2.09 µM), the “MFC Range” value [3] was 4 to 16 µg/mL and the “MIC Range” value [3] was 4 to 8 µg/mL. The “MFC Range” value (K. apiculate ATCC 9774) was 2 µg/mL (≈ 8.36 µM), the “MIC Range” value (K. apiculate ATCC 9774) was 1 µg/mL (≈ 4.18 µM) and the “MFC Range” value [4] was 4 µg/mL (≈ 16.7 µM). For the same compound, the “MIC Range” value [4] was 4 µg/mL (≈ 16.7 µM), the “MFC Range” value [5] was 8 µg/mL (≈ 33.4 µM) and the “MIC Range” value [5] was 4 µg/mL (≈ 16.7 µM). The “MFC Range” value [6] was 8 µg/mL (≈ 33.4 µM), the “MIC Range” value [6] was 4 µg/mL (≈ 16.7 µM) and the “MFC Range” value (C. albicans ATCC 10231) was 8 µg/mL (≈ 33.4 µM). The “MIC Range” value (C. albicans ATCC 10231) was 8 µg/mL (≈ 33.4 µM), the “MFC Range” value (C. albicans ATCC 14053) was 16 µg/mL (≈ 66.9 µM) and the “MIC Range” value (C. albicans ATCC 14053) was 16 µg/mL (≈ 66.9 µM). The “MFC Range” value (C. albicans ATCC 60193) was 16 µg/mL (≈ 66.9 µM), the “MIC Range” value (C. albicans ATCC 60193) was 16 µg/mL (≈ 66.9 µM) and the “MFC Range” value [7] was 32 µg/mL (≈ 134 µM). The “MIC Range” value [7] was 16 µg/mL (≈ 66.9 µM), the “MFC Range” value (C. guilliermondii (9)) was over 64 µg/mL and the “MFC 50% (MFC at which 50% of the strains are killed)” value (C. krusei (10); C. krusei (10)) was 32 µg/mL. The “MFC 90% (MFC at which 90% of the strains are killed)” value (C. krusei (10); C. krusei (10)) was 32 µg/mL, the “MFC Range” value (C. krusei (10); C. krusei (10)) was 16 to 64 µg/mL and the “MIC Range” value (C. krusei (10); C. krusei (10)) was 8 to 16 µg/mL. For the same compound, the “share of isolates with MFC/MIC ratio <2” value (C. krusei (10); C. krusei clinical isolates) was 70%, the MIC50 (C. krusei (10); Pichia kudriavzevii, C. krusei (10), read-out: MIC 50% (MIC at which 50% of the strains are inhibited)) was 8 µg/mL (≈ 33.4 µM) and the MIC90 (C. krusei (10); Pichia kudriavzevii, C. krusei (10), read-out: MIC 90% (MIC at which 90% of the strains are inhibited)) was 16 µg/mL (≈ 66.9 µM). The “MFC Range” value (T. asahii ATCC 20039) was 16 µg/mL (≈ 66.9 µM), the “MIC Range” value (T. asahii ATCC 20039) was 8 µg/mL (≈ 33.4 µM) and the “MFC Range” value (A. nidulans strain FGSC4) was 16 µg/mL (≈ 66.9 µM). The “MIC Range” value (A. nidulans strain FGSC4) was 8 µg/mL (≈ 33.4 µM), the “antifungal spectrum in broth macrodilution assays” value [8] was “broad-spectrum antifungal activity” and the “activity in the presence of serum” value ([8]; 50% human serum) was “not active against all species”. The fungicidal action ([8]; 132 reference strains and clinical isolates, incl. those resistant to fluconazole, ketoconazole, amphotericin B or flucytosine) was “fungicidal for the majority” and the “effect of media pH on activity (MICs and MFCs)” value ([8]; pH 5, pH 6 and pH 7) was “unaffected; also recorded: identical or differed by no more than a single 2-fold dilution”.
